One series relates to rat ligated ileal loops. The following applies: in vivo.
Series [1] deals with hyperimmune antisera to biologic ST. In kind it is binding, goat and rabbit.
The subject of series [2] is hyperimmune antisera to synthetic ST. In kind it is binding, goat and rabbit.
In series [3] the test system is hyperimmune rabbit antiserum to biologic ST. As to conditions: in vivo.
In series [4] the test system is goat hyperimmune antiserum to synthetic ST. As to conditions: in vivo.
The next series concerns suckling mouse. As to conditions: in vivo.
For series [5] the following is noted: in vivo, po.
The test system of series [6] is rabbit ligated ileal loops. As to conditions: in vivo.

Where no end group is shown, it is not given here.

Take “NTFYCCELCCYPACAGCN (cysteine pairing not given here) [synthetic ST]”: in the series with rat ligated ileal loops, the “ED50 in rat ligated ileal loops” value is 2.0 nanograms and the “secretory responses in ligated ileal loops compared with biologic ST” value is recorded as “Substantial identity of secretory responses”. Moreover, in series [1], the “Anti-Biol.-ST: percent recognition of assayed ST by antiserum raised to biologic ST” value was 263 and the “antigenicity relative to biologic ST Ib, later preparations” value is on record as “about 3 fold”. Moreover, in series [2], the “Anti-Syn. ST: percent recognition of assayed ST by antiserum raised to synthetic ST” value is 100 and the “antigenicity compared with biologic ST” value is on record as “identical”. Moreover, in series [3], the “mouse units of toxin neutralized by one milliliter of hyperimmune rabbit antiserum to biologic ST” value was 160 MU. Moreover, in series [4], the “mouse units of toxin neutralized by one milliliter of goat hyperimmune antiserum to synthetic ST” value came out at 220 MU. In addition, in the series on suckling mouse, the “Nanograms required to provide a gut: whole body ratio of 0.083” value is reported as 5.3 ng, the “Suckling Mouse (Percent)” value came out at 120, the “biological activity / potency in suckling mouse assay compared with biologic (E. coli) ST” value was “substantially the same as biologic ST” and the “mouse units of ST activity per microgram” value is 175 mouse units per microgram. In addition, in the series on suckling mouse, the “reduction of ST toxicity by the cross-linking reaction to B subunit” value is given as 727 fold, the “secretory activity in the suckling mouse assay after dithiothreitol” value is “abolished its secretory activity” and the “value for one mouse unit” value was 5.7 nanograms. In addition, in series [5], the “diarrhea after p.o. administration” value is reported as “did not cause diarrhea”. In addition, in series [6], the “fluid secretion in rabbit ligated ileal loops” value is “did not cause any fluid secretion” and the “fluid:length ratio in rabbit ligated ileal loops” value is given as 1.1±0.3.

The values are drawn from patent publication US4886663A (priority 1983, dated 1989).
